Earlier results on one compound are cited in article PMC10322880 (Communications Biology, 2023).

The data set concerns SARS-CoV-2. The settings on record: phase 2/3 clinical trial.

On to `Cn1cnc(Cn2c(=O)[nH]/c(=N\c3cc4cn(C)nc4cc3Cl)n(Cc3cc(F)c(F)cc3F)c2=O)n1` [ensitrelvir], for which the SARS-CoV-2 clearance entry is on record as “rapid SARS-CoV-2 clearance” and the tolerability entry was “well tolerated”.
